# Measured values: patent US6479472B1, “Methods of using therapeutic phospholipid derivatives” (Asta Medica Aktiengesellschaft, priority 1993, dated 2002)
# Structures can show the parent of a compound that is named as a salt.
# Tests used:
# [1] = system: human KB tumors (ATCC CCL 17 KB, human epidermoid larynx tumors); assay: KB tumor model, subcutaneous implants in nude mice, oral treatment (Experiment 2); format: in vivo, female nu/nu mice (strain NMRI); conditions: for efficacy of standard cytostatics: KB implanted tumors in test mice
# Excerpt: (§1) The inventors used female, nu/nu mice (strain NMRI) aged 9-10 weeks and weighing 21-29 g (Breeder: Bomholtgard Breeding and Research Center, DK-8680 Ry) for testing. Tumor fragments consisting of the human KB tumors (ATCC; Rockville, Md.; cell line ATCC CCL 17 KB, human epidermoid larynx tumors), and having an average diameter of 2 mm, were implanted subcutaneously into the right side of the test mice.
# The test mice were randomly assigned to various treatment and control groups.
# Tumor weights were estimated by first palpating the tumors and then comparing the volumes of the palpated tumors with the volumes of prefabricated plasticine models according to Druckrey, et al., “Experimentelle Beiträge zum Dosis-Problem in der Krebs-Chemotherapie und zur Wirkungsweise von Endoxan, Dtsch. Med. Wschr., 88:651 (1963). After determining the weight of the models, the inventors converted each of these values to a tumor weight by determining the relationship between the specific weight of each tumor tissue and its corresponding plasticine model. To ensure the accuracy of this method, the inventors simultaneously estimated the weights of 99 individual tumors by both palpation and direct weighing of extirpated tumors.
# Once the KB tumor implants attained a weight of approximately 0.2 g, the inventors commenced therapy with the compounds of Examples 1, 8, 17, 21, 22, 24 and 25 of the subject application. Each compound was dissolved in 0.9% NaCl and administered per os (stomach tube) in accordance with the regimen schedules detailed in Graphs 10-17 hereinbelow. The control mice were treated with the vehicle alone.
# During the observation period, tumor weights were determined for each of the test mice at regular intervals.
# The test mice were all housed under specific pathogen free (SPF) conditions with unrestricted water supply (acidified to pH 3) and standard pellet lab chow (Altromin 1324).
# [2] = system: DMBA-induced mammary carcinomas / KB implanted tumors; assay: Summary statement on Experiments 1 and 2 (DMBA and KB tumor models, model not told per compound); format: in vivo, rats / mice; conditions: for GII (growth inhibition index): specified dosage regimens, model not given, GII>100% = tumor regression; for tumor remission: model and regimen not given
# Method: The inventors induced mammary carcinomas in female Sprague-Dawley rats (Mollegaard Breeding Center, DK-4236 Ejby) aged 50 days by administering a single dose of 20 mg 7,12-dimethylbenz(a)anthracene (DMBA) dissolved in 1 ml of olive oil to each rat by gavage. The first tumor appeared approximately one month after feeding the subject rats with DMBA.
# as §1
# Results from Experiments 1 and 2 were calculated and expressed in accordance with the growth inhibition index (GII) described in Voegeli, et al., “Selective cytostatic activity of Hexadecylphosphocholine against tumor cells in vitro leads to the establishment of an in vivo screening system for phospholipid analogues,” Int. J. Oncol., 2:161 (1993). The GII values from Experiments 1 and 2 are detailed in Table 1 below.
# [3] = system: DMBA-induced mammary carcinomas; assay: DMBA-induced mammary carcinoma model, oral treatment, tumor weight by palpation (Experiment 1); format: in vivo, female Sprague-Dawley rats; conditions: for efficacy of standard cytostatics: DMBA-induced mammary carcinomas in test rats
# Excerpt: The first tumor appeared approximately one month after feeding the subject rats with DMBA. Tumor weights were estimated on the basis of tumor volume. This was accomplished by palpating tumors and comparing the volumes of the palpated tumors with the volumes of prefabricated plasticine models in the manner taught by Druckrey, et al., “Experimentelle Beiträge zum Dosis-Problem in der Krebs-Chemotherapie und zur Wirkungsweise von Endoxan, Dtsch. Med. Wschr., 88:651 (1963). Each of the relevant plasticine models was then weighed and converted to a tumor weight by means of a factor reflecting the relationship between the specific weight of each tumor tissue and its corresponding plasticine model. […] A statistical evaluation of the resulting data indicated a correlation coefficient of 0.98. Test rats having a total tumor weight of approximately 1 g were randomly allocated amongst various dosage and control groups, each group having a total of 6-7 rats. In this way, the inventors were able to ensure an approximately equal distribution amongst the experimental groups of tumors having different latencies, total tumor weight and numbers of tumor nodes. […] The control group was given tap water in accordance with the same schedule. […] During the observation period, tumor weights were determined for each of the test rats at regular intervals. The test rats were all housed under specific pathogen free (SPF) conditions with unrestricted water supply (acidified to pH 3) and standard pellet lab chow (Altromin 1324). […] J. Oncol., 2:161 (1993).
# [4] = 2 × 316 mg/kg per os, treatment day 0, 7
# [5] = 4 × 100 mg/kg per os, treatment day 0, 3, 7, 10, >100 = tumor regression
smiles,measurement,setting,value
"CCCCCCCCCCCCCCCCCCOP(=O)([O-])OCC1CCC[N+](C)(C)C1 (centres unmarked) [Example 10, Octadecyl (1,1-dimethylpiperidinio-3-yl)methyl phosphate]",KB (G.I.I. %),[1]; [4],99%
same,GII (growth inhibition index),[2],100%
"CCCCCCCCCCCCCCCCOP(=O)([O-])OC1C[N+]2(C)CCC1CC2 (centres unmarked) [Example 22, Hexadecyl 1-methylquinuclidinio-3-yl phosphate]",KB (G.I.I. %),"[1]; 2 × 383 mg/kg per os, treatment day 0, 7",102%
same,DMBA (G.I.I. %),[3]; [5],105%
"CCCCCCCCCCCCCCCCOP(=O)([O-])OCC1CCC[N+]1(C)C (centres unmarked) [Example 20, Hexadecyl (1,1-dimethylpyrrolidinio-2-yl)methyl phosphate]",DMBA (G.I.I. %),[3]; [5],99%
same,GII (growth inhibition index),[2],100%
"CCCCCCCCCCCCCCCCCCOP(=O)([O-])OCC1CCCC[N+]1(C)C (centres unmarked) [Example 8, Octadecyl (1,1-dimethylpiperidinio-2-yl)methyl phosphate]",KB (G.I.I. %),[1]; [4],100%
same,DMBA (G.I.I. %),[3]; [5],125%
same,GII (growth inhibition index),[2],100%
"CCCCCCCCCCCCCCCCCCOP(=O)([O-])OC1CC[N+](C)(C)CC1 [Example 1, 4-(((Octadecyloxy)hydroxyphosphenyl)oxy)-1,1-dimethylpiperidinium hydroxide internal salt]",KB (G.I.I. %),"[1]; 1 × 511 mg/kg per os, treatment day 0",103%
same,DMBA (G.I.I. %),[3]; [5],119%
same,DMBA (G.I.I. %),"[3]; 14 × 31.6 mg/kg per os, treatment day 0-13",108%
same,DMBA (G.I.I. %),"[3]; 28 × 68.1 mg/kg per os, 'large tumors', treatment day 0-27",137%
same,tumor remission,[2],complete disappearance of tumors
"CCCCCCCCCCCCCCCCCCOP(=O)([O-])OC1CCC[N+](C)(C)CC1 (centres unmarked) [Example 13, Octadecyl 1,1-dimethylhexahydroazepinio-4-yl phosphate]",DMBA (G.I.I. %),"[3]; 1 × 511 mg/kg per os, 'large tumors', treatment day 0",145%
same,DMBA (G.I.I. %),"[3]; 14 × 46.4 mg/kg per os, treatment day 0-13",129%
"CCCCCCCCCCCCCCCCCCOP(=O)([O-])OC1CC[N+](C)(C)C1 (centres unmarked) [Example 17, Octadecyl 1,1-dimethylpyrrolidinio-3-yl phosphate]",KB (G.I.I. %),"[1]; 2 × 100 mg/kg per os, treatment day 0, 7",90%
"N.N.[Cl][Pt][Cl] [Cisplatin, reference compound]",efficacy of standard cytostatics,[1],relatively ineffective
same,efficacy of standard cytostatics,[3],relatively ineffective
"COc1cccc2c1C(=O)c1c(O)c3c(c(O)c1C2=O)C[C@@](O)(C(=O)CO)C[C@@H]3O[C@H]1C[C@H](N)[C@H](O)[C@H](C)O1 [Adriamycin, reference compound]",efficacy of standard cytostatics,[1],relatively ineffective
same,efficacy of standard cytostatics,[3],relatively ineffective
"O=P1(N(CCCl)CCCl)NCCCO1 (centres unmarked) [Cyclophosphamide, reference compound]",efficacy of standard cytostatics,[1],relatively ineffective
same,efficacy of standard cytostatics,[3],relatively ineffective
"CCCCCCCCCCCCCCCCCCOP(=O)([O-])OCC1CCC[N+]1(C)C (centres unmarked) [Example 21, Octadecyl (1,1-dimethylpyrrolidinio-2-yl)methyl phosphate]",KB (G.I.I. %),[1]; [4],106%
same,DMBA (G.I.I. %),[3]; [5],116%
same,tumor remission,[2],complete disappearance of tumors
"CCCCCCCCCCCCCCCCOP(=O)([O-])OC1CC2CCC(C1)[N+]2(C)C (centres unmarked) [Example 24, Hexadecyl 1,1-dimethyltropanio-4-yl phosphate]",KB (G.I.I. %),"[1]; 2 × 215 mg/kg per os, treatment day 0, 7",108%
"CCCCCCCCCCCCCCCCCCOP(=O)([O-])OC1CC2CCC(C1)[N+]2(C)C (centres unmarked) [Example 25, Octadecyl 1,1-dimethyltropanio-4-yl phosphate]",KB (G.I.I. %),[1]; [4],110%
same,tumor remission,[2],complete disappearance of tumors
